We go through 32 compounds from US20080051387A1, “TETRAHYDROPYRIDO[3,4-D]PYRIMIDINES AND RELATED ANALOGUES” (priority 2006, published 2008).

This assay concerns the target T1, chimeric human H3 receptor (Homo sapiens, UniProt Q9Y5N1).
T1 construct: rat Galpha-i2 (Gnai2, rat); made in house; host or cells: Sf9 insect cells (baculovirus); P2 membranes
Put plainly: Chimeric human H3 receptor screening GTP binding assay (inhibition of histamine-stimulated GTP-gamma35S binding, Example 8). The assay is classed as biochemical. As to conditions: 1 h; assay of Example 8; symbol "!" in column headed Ki; read-out: percent inhibition of agonist-induced GTP-gammaS binding to H3. The method, boiled down: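 Sf9 membranes co-expressing chimeric human H3 receptor and heterotrimeric G-protein (35 μg protein) incubated 60 min at room temperature with 4 μM compound, 1 μM histamine and 125 pM GTP-gamma35S in pH 7.4 buffer with 10 μM GDP. Filter-bound radioactivity, nonspecific (10 μM GTP-gammaS) subtracted, reported as % inhibition of histamine signal.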
(GTPγS is a poorly hydrolysed GTP analogue; its binding reports G protein activation.)

T1 sequence (Q9Y5N1 with tags, fused parts or gaps): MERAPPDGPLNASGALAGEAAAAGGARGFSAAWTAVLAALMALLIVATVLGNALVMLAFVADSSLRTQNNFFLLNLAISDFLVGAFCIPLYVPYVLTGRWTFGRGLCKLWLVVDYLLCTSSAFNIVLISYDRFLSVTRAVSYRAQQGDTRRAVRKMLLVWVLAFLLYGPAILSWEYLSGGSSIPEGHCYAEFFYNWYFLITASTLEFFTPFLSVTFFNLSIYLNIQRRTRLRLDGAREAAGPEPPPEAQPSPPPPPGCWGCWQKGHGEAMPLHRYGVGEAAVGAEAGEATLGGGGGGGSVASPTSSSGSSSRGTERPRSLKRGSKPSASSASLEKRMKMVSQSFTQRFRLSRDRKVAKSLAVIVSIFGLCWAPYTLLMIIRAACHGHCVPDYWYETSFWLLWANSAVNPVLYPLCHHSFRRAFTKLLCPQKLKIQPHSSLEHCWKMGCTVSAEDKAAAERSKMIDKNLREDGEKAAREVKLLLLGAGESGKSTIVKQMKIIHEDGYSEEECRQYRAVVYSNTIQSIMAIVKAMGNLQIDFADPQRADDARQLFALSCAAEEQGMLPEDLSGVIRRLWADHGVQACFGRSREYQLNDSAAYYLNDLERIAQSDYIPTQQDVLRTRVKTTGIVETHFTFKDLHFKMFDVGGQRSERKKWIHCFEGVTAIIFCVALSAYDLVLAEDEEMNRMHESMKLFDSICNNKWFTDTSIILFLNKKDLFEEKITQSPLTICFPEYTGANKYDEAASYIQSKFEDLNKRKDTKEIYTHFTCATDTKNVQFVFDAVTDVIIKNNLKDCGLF

Regarding `O=C(Cc1ccc(Cl)c(Cl)c1)N1CCc2cnc(N3CCN(C4CCC4)CC3)nc2CC1` [Compound 293, 2-(4-cyclobutylpiperazin-1-yl)-7-[(3,4-dichlorophenyl)acetyl]-6,7,8,9-tetrahydro-5H-pyrimido[4,5-d]azepine], the inhibition – broadly, the change of the read-out against control, counted positive when it falls – at 4 µM was at least 90%. To `O=C(Cc1ccccc1Cl)N1CCc2cnc(N3CCN(C4CCC4)CC3)nc2CC1` [Compound 294, 7-[(2-chlorophenyl)acetyl]-2-(4-cyclobutylpiperazin-1-yl)-6,7,8,9-tetrahydro-5H-pyrimido[4,5-d]azepine] belongs at least 90%; to `O=C(Cc1ccccc1C(F)(F)F)N1CCc2cnc(N3CCN(C4CCC4)CC3)nc2CC1` [Compound 295, 2-(4-cyclobutylpiperazin-1-yl)-7-{[2-(trifluoromethyl)phenyl]acetyl}-6,7,8,9-tetrahydro-5H-pyrimido[4,5-d]azepine], at least 90%. Under `O=C(Cc1ccc(Cl)cc1Cl)N1CCc2cnc(N3CCN(C4CCC4)CC3)nc2CC1` [Compound 296, 2-(4-cyclobutylpiperazin-1-yl)-7-[(2,4-dichlorophenyl)acetyl]-6,7,8,9-tetrahydro-5H-pyrimido[4,5-d]azepine] stands at least 90%; under `O=C(Cc1ccccc1Br)N1CCc2cnc(N3CCN(C4CCC4)CC3)nc2CC1` [Compound 297, 7-[(2-bromophenyl)acetyl]-2-(4-cyclobutylpiperazin-1-yl)-6,7,8,9-tetrahydro-5H-pyrimido[4,5-d]azepine], at least 90%; under `O=C(Cc1c(F)cccc1Cl)N1CCc2cnc(N3CCN(C4CCC4)CC3)nc2CC1` [Compound 298, 7-[(2-chloro-6-fluorophenyl)acetyl]-2-(4-cyclobutylpiperazin-1-yl)-6,7,8,9-tetrahydro-5H-pyrimido[4,5-d]azepine], at least 90%.

As to `COc1cc(Br)c(CC(=O)N2CCc3cnc(N4CCN(C5CCC5)CC4)nc3CC2)cc1OC` [Compound 299, 7-[(2-bromo-4,5-dimethoxyphenyl)acetyl]-2-(4-cyclobutylpiperazin-1-yl)-6,7,8,9-tetrahydro-5H-pyrimido[4,5-d]azepine], the inhibition at 4 µM is at least 90%. As to `O=C(Cc1c(Cl)ccc(Cl)c1Cl)N1CCc2cnc(N3CCN(C4CCC4)CC3)nc2CC1` [Compound 300, 2-(4-cyclobutylpiperazin-1-yl)-7-[(2,3,6-trichlorophenyl)acetyl]-6,7,8,9-tetrahydro-5H-pyrimido[4,5-d]azepine], the inhibition at 4 µM is at least 90%. Take `O=C(Cc1cc(Cl)ccc1Br)N1CCc2cnc(N3CCN(C4CCC4)CC3)nc2CC1` [Compound 301, 7-[(2-bromo-5-chlorophenyl)acetyl]-2-(4-cyclobutylpiperazin-1-yl)-6,7,8,9-tetrahydro-5H-pyrimido[4,5-d]azepine]: the inhibition at 4 µM is at least 90%. Under `O=C(Cc1ccc(F)cc1Cl)N1CCc2cnc(N3CCN(C4CCC4)CC3)nc2CC1` [Compound 302, 7-[(2-chloro-4-fluorophenyl)acetyl]-2-(4-cyclobutylpiperazin-1-yl)-6,7,8,9-tetrahydro-5H-pyrimido[4,5-d]azepine] stands at least 90%. Under `O=C(Cc1c(Cl)cccc1Cl)N1CCc2cnc(N3CCN(C4CCC4)CC3)nc2CC1` [Compound 303, 2-(4-cyclobutylpiperazin-1-yl)-7-[(2,6-dichlorophenyl)acetyl]-6,7,8,9-tetrahydro-5H-pyrimido[4,5-d]azepine] stands at least 90%. Regarding `O=C(Cc1ccccc1Oc1ccccc1)N1CCc2cnc(N3CCN(C4CCC4)CC3)nc2CC1` [Compound 304, 2-(4-cyclobutylpiperazin-1-yl)-7-[(2-phenoxyphenyl)acetyl]-6,7,8,9-tetrahydro-5H-pyrimido[4,5-d]azepine], the inhibition at 4 µM was at least 90%. To `Cc1ccccc1CC(=O)N1CCc2cnc(N3CCN(C4CCC4)CC3)nc2CC1` [Compound 305, 2-(4-cyclobutylpiperazin-1-yl)-7-[(2-methylphenyl)acetyl]-6,7,8,9-tetrahydro-5H-pyrimido[4,5-d]azepine] belongs at least 90%; to `COc1ccccc1CC(=O)N1CCc2cnc(N3CCN(C4CCC4)CC3)nc2CC1` [Compound 306, 2-(4-cyclobutylpiperazin-1-yl)-7-[(2-methoxyphenyl)acetyl]-6,7,8,9-tetrahydro-5H-pyrimido[4,5-d]azepine], at least 90%. Under `CCOc1ccccc1CC(=O)N1CCc2cnc(N3CCN(C4CCC4)CC3)nc2CC1` [Compound 307, 2-(4-cyclobutylpiperazin-1-yl)-7-[(2-ethoxyphenyl)acetyl]-6,7,8,9-tetrahydro-5H-pyrimido[4,5-d]azepine] stands at least 90%. For `COc1ccc(OC)c(CC(=O)N2CCc3cnc(N4CCN(C5CCC5)CC4)nc3CC2)c1` [Compound 308, 2-(4-cyclobutylpiperazin-1-yl)-7-[(2,5-dimethoxyphenyl)acetyl]-6,7,8,9-tetrahydro-5H-pyrimido[4,5-d]azepine], the inhibition at 4 µM is at least 90%. On to `O=C(Cc1cccc2ccccc12)N1CCc2cnc(N3CCN(C4CCC4)CC3)nc2CC1` [Compound 309, 2-(4-cyclobutylpiperazin-1-yl)-7-(1-naphthylacetyl)-6,7,8,9-tetrahydro-5H-pyrimido[4,5-d]azepine], for which the inhibition at 4 µM was at least 90%. For `COc1ccc(CC(=O)N2CCc3cnc(N4CCN(C5CCC5)CC4)nc3CC2)c(OC)c1` [Compound 310, 2-(4-cyclobutylpiperazin-1-yl)-7-[(2,4-dimethoxyphenyl)acetyl]-6,7,8,9-tetrahydro-5H-pyrimido[4,5-d]azepine], the inhibition at 4 µM was at least 90%.

For `COc1ccc(Br)cc1CC(=O)N1CCc2cnc(N3CCN(C4CCC4)CC3)nc2CC1` [Compound 311, 7-[(5-bromo-2-methoxyphenyl)acetyl]-2-(4-cyclobutylpiperazin-1-yl)-6,7,8,9-tetrahydro-5H-pyrimido[4,5-d]azepine], the inhibition at 4 µM was at least 90%.

For `COc1cccc(CC(=O)N2CCc3cnc(N4CCN(C5CCC5)CC4)nc3CC2)c1OC` [Compound 312, 2-(4-cyclobutylpiperazin-1-yl)-7-[(2,3-dimethoxyphenyl)acetyl]-6,7,8,9-tetrahydro-5H-pyrimido[4,5-d]azepine], the inhibition at 4 µM was at least 90%. Under `O=C(Cc1ccccc1OC(F)(F)F)N1CCc2cnc(N3CCN(C4CCC4)CC3)nc2CC1` [Compound 313, 2-(4-cyclobutylpiperazin-1-yl)-7-{[2-(trifluoromethoxy)phenyl]acetyl}-6,7,8,9-tetrahydro-5H-pyrimido[4,5-d]azepine] stands at least 90%. To `O=C(Cc1ccccc1OCc1ccccc1)N1CCc2cnc(N3CCN(C4CCC4)CC3)nc2CC1` [Compound 314, 7-{[2-(benzyloxy)phenyl]acetyl}-2-(4-cyclobutylpiperazin-1-yl)-6,7,8,9-tetrahydro-5H-pyrimido[4,5-d]azepine] belongs at least 90%. Under `O=C(COc1ccccc1)N1CCc2cnc(N3CCN(C4CCC4)CC3)nc2CC1` [Compound 315, 2-(4-cyclobutylpiperazin-1-yl)-7-(phenoxyacetyl)-6,7,8,9-tetrahydro-5H-pyrimido[4,5-d]azepine] stands at least 90%; under `Cc1ccc(OCC(=O)N2CCc3cnc(N4CCN(C5CCC5)CC4)nc3CC2)cc1` [Compound 316, 2-(4-cyclobutylpiperazin-1-yl)-7-[(4-methylphenoxy)acetyl]-6,7,8,9-tetrahydro-5H-pyrimido[4,5-d]azepine], at least 90%.

As to `O=C(COc1ccc(F)cc1)N1CCc2cnc(N3CCN(C4CCC4)CC3)nc2CC1` [Compound 317, 2-(4-cyclobutylpiperazin-1-yl)-7-[(4-fluorophenoxy)acetyl]-6,7,8,9-tetrahydro-5H-pyrimido[4,5-d]azepine], the inhibition at 4 µM is at least 90%.

Take `COc1cc(Cl)ccc1OCC(=O)N1CCc2cnc(N3CCN(C4CCC4)CC3)nc2CC1` [Compound 318, 7-[(4-chloro-2-methoxyphenoxy)acetyl]-2-(4-cyclobutylpiperazin-1-yl)-6,7,8,9-tetrahydro-5H-pyrimido[4,5-d]azepine]: the inhibition at 4 µM is at least 90%. As for `O=C(COc1ccc(OC(F)(F)F)cc1)N1CCc2cnc(N3CCN(C4CCC4)CC3)nc2CC1` [Compound 319, 2-(4-cyclobutylpiperazin-1-yl)-7-{[4-(trifluoromethoxy)phenoxy]acetyl}-6,7,8,9-tetrahydro-5H-pyrimido[4,5-d]azepine], the inhibition at 4 µM was at least 90%. Under `O=C(COc1ccccc1Cl)N1CCc2cnc(N3CCN(C4CCC4)CC3)nc2CC1` [Compound 320, 7-[(2-chlorophenoxy)acetyl]-2-(4-cyclobutylpiperazin-1-yl)-6,7,8,9-tetrahydro-5H-pyrimido[4,5-d]azepine] stands at least 90%; under `Cc1ccccc1OCC(=O)N1CCc2cnc(N3CCN(C4CCC4)CC3)nc2CC1` [Compound 321, 2-(4-cyclobutylpiperazin-1-yl)-7-[(2-methylphenoxy)acetyl]-6,7,8,9-tetrahydro-5H-pyrimido[4,5-d]azepine], at least 90%.

Regarding `Cc1cccc(OCC(=O)N2CCc3cnc(N4CCN(C5CCC5)CC4)nc3CC2)c1` [Compound 322, 2-(4-cyclobutylpiperazin-1-yl)-7-[(3-methylphenoxy)acetyl]-6,7,8,9-tetrahydro-5H-pyrimido[4,5-d]azepine], the inhibition at 4 µM is at least 90%. Under `COc1ccccc1OCC(=O)N1CCc2cnc(N3CCN(C4CCC4)CC3)nc2CC1` [Compound 323, 2-(4-cyclobutylpiperazin-1-yl)-7-[(2-methoxyphenoxy)acetyl]-6,7,8,9-tetrahydro-5H-pyrimido[4,5-d]azepine] stands at least 90%. Under `COc1cccc(OCC(=O)N2CCc3cnc(N4CCN(C5CCC5)CC4)nc3CC2)c1` [Compound 324, 2-(4-cyclobutylpiperazin-1-yl)-7-[(3-methoxyphenoxy)acetyl]-6,7,8,9-tetrahydro-5H-pyrimido[4,5-d]azepine] stands at least 90%.
